7 molecules from ChEMBL document CHEMBL1909558, “Discovery, synthesis and SAR analysis of novel selective small molecule S1P4-R agonists based on a (2Z,5Z)-5-((pyrrol-3-yl)methylene)-3-alkyl-2-(alkylimino)thiazolidin-4-one chemotype” (Bioorg Med Chem Lett, 2011) can be followed below.

Molecules are shown by their SMILES. pEC50: −log10 of the molar value. The source made the active and inactive calls. The rule behind the calls is not given here.

Assay [1] concerns the target T1, Sphingosine 1-phosphate receptor 2 (Homo sapiens, UniProt O95136). The assay is described as follows: Agonist activity at S1P2 receptor at 25 uM. The class given is functional.
The target of assay [2] is T2, Sphingosine 1-phosphate receptor 5 (Homo sapiens, UniProt Q9H228). The assay is described as follows: Agonist activity at S1P5 receptor relative to control. The class given is functional.
T2 sequence (Q9H228 whole entry): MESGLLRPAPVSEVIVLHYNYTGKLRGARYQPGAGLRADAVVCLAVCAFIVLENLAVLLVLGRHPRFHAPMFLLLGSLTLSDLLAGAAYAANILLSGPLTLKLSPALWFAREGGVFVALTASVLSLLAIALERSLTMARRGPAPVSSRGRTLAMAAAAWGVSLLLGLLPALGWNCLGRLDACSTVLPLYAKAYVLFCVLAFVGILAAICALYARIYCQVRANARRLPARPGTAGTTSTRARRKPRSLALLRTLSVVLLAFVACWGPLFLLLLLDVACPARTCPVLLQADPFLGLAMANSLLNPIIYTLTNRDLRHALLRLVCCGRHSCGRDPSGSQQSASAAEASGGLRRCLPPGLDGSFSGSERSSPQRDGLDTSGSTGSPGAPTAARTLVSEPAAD
The target in assay [3] is T3, Sphingosine 1-phosphate receptor 1 (Homo sapiens, UniProt P21453). The assay is described as follows: Agonist activity at S1P1 receptor relative to control. It counts as functional.
T3 sequence (P21453 whole entry): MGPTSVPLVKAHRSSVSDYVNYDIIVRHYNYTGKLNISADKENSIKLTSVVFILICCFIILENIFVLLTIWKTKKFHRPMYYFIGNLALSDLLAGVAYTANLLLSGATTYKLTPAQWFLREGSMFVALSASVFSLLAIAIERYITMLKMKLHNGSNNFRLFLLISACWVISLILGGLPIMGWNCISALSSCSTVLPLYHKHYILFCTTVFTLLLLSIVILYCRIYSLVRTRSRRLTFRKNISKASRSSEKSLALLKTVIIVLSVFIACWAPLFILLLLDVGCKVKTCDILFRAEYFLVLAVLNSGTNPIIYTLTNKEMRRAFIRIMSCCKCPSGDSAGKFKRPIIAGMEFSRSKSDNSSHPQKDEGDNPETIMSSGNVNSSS
Assay [4] addresses T3, Sphingosine 1-phosphate receptor 1. The assay is described as follows: Agonist activity at S1P1 receptor. The class given is functional.
Assay [5] addresses T2, Sphingosine 1-phosphate receptor 5. The assay is described as follows: Agonist activity at S1P5 receptor. The class given is functional.
For assay [6], the target named is Sphingosine 1-phosphate receptor 3 (Homo sapiens) (UniProt Q99500). The assay is described as follows: Agonist activity at S1P3 receptor at 25 uM. It counts as functional.
Sphingosine 1-phosphate receptor 3 (Homo sapiens), sequence (Q99500 whole entry): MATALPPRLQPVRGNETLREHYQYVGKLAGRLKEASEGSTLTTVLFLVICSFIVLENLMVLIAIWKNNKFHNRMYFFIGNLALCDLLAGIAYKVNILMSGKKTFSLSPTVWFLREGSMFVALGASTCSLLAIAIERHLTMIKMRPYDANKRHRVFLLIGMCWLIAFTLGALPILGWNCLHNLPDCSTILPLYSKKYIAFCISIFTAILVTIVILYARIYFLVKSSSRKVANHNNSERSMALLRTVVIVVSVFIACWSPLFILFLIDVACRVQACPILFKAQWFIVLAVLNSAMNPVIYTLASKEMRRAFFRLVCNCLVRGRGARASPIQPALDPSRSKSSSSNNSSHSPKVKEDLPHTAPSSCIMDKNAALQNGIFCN
Assay [7] has as its target T4, Sphingosine 1-phosphate receptor 4 (Homo sapiens, UniProt O95977).
T4 sequence (O95977 whole entry): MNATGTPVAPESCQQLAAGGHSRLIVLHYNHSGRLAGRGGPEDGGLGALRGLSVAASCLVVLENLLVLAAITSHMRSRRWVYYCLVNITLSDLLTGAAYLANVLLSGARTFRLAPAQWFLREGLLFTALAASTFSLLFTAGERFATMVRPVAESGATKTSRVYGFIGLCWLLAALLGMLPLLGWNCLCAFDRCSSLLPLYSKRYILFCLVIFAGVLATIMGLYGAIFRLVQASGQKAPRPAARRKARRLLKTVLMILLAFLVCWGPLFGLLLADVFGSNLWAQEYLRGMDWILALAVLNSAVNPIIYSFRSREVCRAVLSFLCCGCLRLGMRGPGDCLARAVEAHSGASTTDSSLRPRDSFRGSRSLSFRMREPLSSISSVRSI
The assay is described as follows: Agonist activity at S1P4 receptor in human U2OS cells expressing VP16-GAL4 transcriptional factor and beta-arrestin/TEV protease fusion protein assessed as migration of VP16-GAL4 into nucleus by FRET based beta lactamase reporter gene assay. It counts as functional, cell-based. A general note: In a reporter assay the amount or activity of a reporter protein is the signal.

Assay [8] has as its target T1, Sphingosine 1-phosphate receptor 2. The assay is described as follows: Agonist activity at S1P2 receptor. It counts as functional.
The target of assay [9] is T3, Sphingosine 1-phosphate receptor 1. The assay is described as follows: Agonist activity at S1P1 receptor at 25 uM. The class given is functional.
In assay [10] the test system is UOS2. The assay is described as follows: Selectivity ratio of EC50 for S1P5 receptor to EC50 for S1P4 receptor in human […] cells. It counts as cell-based.
Assay [11] concerns the target T2, Sphingosine 1-phosphate receptor 5. The assay is described as follows: Agonist activity at S1P5 receptor at 25 uM. The class given is functional.
Assay [12] has as its system UOS2. The assay is described as follows: Selectivity ratio of EC50 for S1P1 receptor to EC50 for S1P4 receptor in human […] cells. The class given is cell-based.
For assay [13], the target named is T3, Sphingosine 1-phosphate receptor 1. The assay is described as follows: Antagonist activity at S1P1 receptor at 25 uM. It counts as functional.
Assay [14] shares this target. The assay is described as follows: Agonist activity at S1P1 receptor at 8.3 uM. The class given is functional.
In assay [15] the target is T2, Sphingosine 1-phosphate receptor 5. The assay is described as follows: Agonist activity at S1P5 receptor at 8.3 uM. It counts as functional.

T1 sequence (O95136 whole entry): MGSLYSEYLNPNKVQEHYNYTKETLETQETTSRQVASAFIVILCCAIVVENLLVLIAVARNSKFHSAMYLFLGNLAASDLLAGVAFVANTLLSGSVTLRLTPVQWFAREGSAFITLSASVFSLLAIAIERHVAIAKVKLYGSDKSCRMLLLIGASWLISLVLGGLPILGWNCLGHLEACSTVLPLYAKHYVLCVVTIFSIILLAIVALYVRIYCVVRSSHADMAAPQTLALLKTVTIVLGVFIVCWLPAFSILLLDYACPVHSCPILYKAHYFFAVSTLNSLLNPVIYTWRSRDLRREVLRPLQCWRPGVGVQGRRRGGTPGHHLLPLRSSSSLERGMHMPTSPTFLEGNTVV

Regarding `C/N=C1\S/C(=C\c2cc(C)n(-c3ccc(F)cc3)c2C)C(=O)N1C`, the result in assay [1] and in [6] was inactive. Moreover, the Efficacy in assay [2] is 50%; in [3], 70%. The pEC50 (in general, the negative decadic logarithm of the EC50, by convention in mol/L) was 5.74 in assay [4], 6.19 in assay [5] and 6.36 in assay [7].
Consider `C/N=C1\S/C(=C\c2cc(C)n(Cc3ccccc3)c2C)C(=O)N1C`, for which the pEC50 in [8] was 5.44; in assay [4], 6.14; in assay [5], 6.84; in [7], 6.58. Also, the result in [6] was inactive.
In the case of `COCC/N=C1\S/C(=C\c2cc(C)n(-c3ccc(F)cc3F)c2C)C(=O)N1C`, the result in [9], in assay [1] and in assay [6] was inactive. Further, the pEC50 in [5] is 5.68; in assay [7] it was 7.25. Moreover, the Ratio EC50 in [10] is 37.
With `C/N=C1\S/C(=C\c2cc(C)n(-c3ccc(F)cc3F)c2C)C(=O)N1C`, the result in [1], in [11] and in assay [6] was inactive. The values for the pEC50 in assay [4] and in assay [7] were 5.35 and 6.68, respectively. In addition, the Ratio EC50 in [12] was determined as 21.
For the molecule `CC/N=C1\S/C(=C\c2cc(C)n(-c3ccccc3F)c2C)C(=O)N1CC`, the result in [9], in [1], in assay [11] and in [6] was inactive. In addition, the negative logarithm of the EC50 (pEC50) in [7] was 6.60.
As to `COCC/N=C1\S/C(=C\c2cc(C)n(Cc3ccccc3)c2C)C(=O)N1C`, the inhibition (commonly the share of the control response that was lost under treatment) in [13] came to 85%. For the same molecule, the outcome in assay [1] and in [6] was inactive. Also, the Efficacy in assay [2] worked out at 80%. For the same molecule, the figures for the pEC50 in assay [5] and in [7] were 6.71 and 7.17, respectively.
For `Cc1cc(/C=C2\S/C(=N\CCO)N(C)C2=O)c(C)n1-c1ccccc1F`, the Efficacy in [14] came to 20%; in assay [15], 60%. Also, the outcome in [1] and in [6] was inactive. The pEC50 in assay [7] was 6.51.
